Test results published in US20230131339A1, “EPI-X4 BASED PEPTIDES AND DERIVATIVES THEREOF” (Universitaet Ulm, priority 2020, published 2023).
Where a SMILES comes first, the peptide text is derived from it. Where no end group is shown, it is not given here. Side-chain parts run from the residue outwards. [ ]: non-standard residue; d: D form. The star is where a group is joined. Stearoyl = CCCCCCCCCCCCCCCCCC(=O)*; Palmitoyl = CCCCCCCCCCCCCCCC(=O)*; Glu = glutamate linker

Tests used:
[1] = system: CXCL12 induced Ca2+-signalling; assay: Ca++ signaling in BCR-ABL-transformed murine bone marrow cells; format: cell-based; details: 1 μM
Protocol: Fifth, it was shown that the peptide derivatives inhibit calcium-signaling. CXCL12 stimulation of CXCR4 expressing B-cells leads to a strong calcium-release. In the presence of CXCR4 antagonists this response is reduced.
For calcium measurement, 1×10^6 BCR-ABL-transformed murine bone marrow cells were incubated with 5 μg/mL of Indo-1 (Molecular Probes) and 0.5 μg/mL of pluronic F-127 (Molecular Probes) in Iscove's medium supplemented with 1% FCS (Pan Biotech) at 37° C. for 45 min. Cells were then washed by centrifugation and the cell pellets were resuspended in Iscove's medium with 1% FCS and treated with the EPI-X4 derivatives (1 μM or 0.5 μM) for 10 minutes at room temperature. Cells were pre-warmed for 5 minutes at 37° C. Calcium flux was assessed by FACS measurement at BD LSR Fortessa. After 30 seconds of baseline recording, CXCR4-dependent calcium signaling was determined by stimulating with 100 ng/ml of mouse SDF-1a (PeproTech).

[2] = mice, i.v. tail vein
Protocol: Peptides were injected into the tail vein of mice. 4 hours post injection, mice were sacrificed and blood taken by heart punctation. Plasma was obtained by centrifugation and tested for remaining activity in antibody competition assay. As control, peptide was spiked into native plasma (ex vivo). IC50 values were determined by non-linear regression assuming 1.8 ml in vivo blood volume. Remaining activity was determined by IC50 (ex vivo)/IC50 (in vivo)×100. The tested peptides included JM #143 (SEQ ID NO.: 54), JM #144 (SEQ ID NO.: 55), JM #192 (SEQ ID NO.: 89), JM #180 (SEQ ID NO.: 77), JM #194 (SEQ ID NO.: 91), JM #235 (SEQ ID NO.: 130), JM #198 (SEQ ID NO.: 95), JM #255 (SEQ ID NO.: 150), JM #257 (SEQ ID NO.: 152) and JM #204 (SEQ ID NO.: 99). […] Shown are data from 2 individual mice measured in duplicates.
In vivo stability assay. 100 μl of a 700 μg/ml stock solution of the peptide in 0.9% NaCl was intravenously injected in the tail vein of C57BL/6NCrl (BL6) mice. 4 hours post injection, mice were killed by cervical dislocation. Mouse plasma was obtained by heart punctation. Blood was 19:1 diluted with 0.16 M NaEDTA and centrifuged at 2000×g for 20 min at 4° C. to obtain plasma. Plasma was stored at −80° C. till remaining peptide activity in the plasma was determined by 12G5 antibody competition assay.

[3] = Functional stability assay in human plasma; details: human, plasma
Protocol: Fourth, the stability of peptides in human plasma and whole human blood was tested (FIG. 4). The functional stability of EPI-X4 (SEQ ID NO.: 1) derivatives was screened using a CXCR4 antibody-based screening approach. Peptides were diluted in full human plasma or blood (>99%) and the functional activity was then measured after either 2 hours or 8 hours and compared to a sample that was not incubated in plasma or blood.
In this test, the peptides were incubated in human plasma for a certain time period.
Stability assay. Whole blood was collected from healthy donors in EDTA tubes and directly used or subsequently centrifuged for 15 min at 2,500×g to obtain plasma. Plasma from 6 donors was pooled and stored in aliquots at −80° C. Compounds were 200-fold diluted in human plasma or whole human blood to reach final concentrations of 20 μM. The t=0 sample was immediately taken and stored at −80° C. Plasma/compound or blood/compound mixture was then transferred to 37° C. and shook at 350 rpm. At given time points samples were taken and stored at −80° C.°. For measuring the functional activity of the plasma/peptide samples, the mixtures were thawed and diluted in ice cold PBS. 12G5-APC antibody competition was then performed as described before. For blood/peptide functional stability, samples were thawed and centrifuged at 14,000 rpm to remove cells and debris. The supernatant was then diluted in PBS and 12G5-antibody competition assay was performed. After the 2 hours incubation, the cells were washed and 50 μl of 1-step-Fix/Lyse solution (Thermo Fisher #00-5333-54) was added for 15 minutes at room temperature. Afterwards cells were washed again and analyzed for bound antibody.

[4] = system: CXCL12 induced migration of T-cells; assay: Migration assay (transwell, Jurkat cells); format: cell-based
Protocol: For each peptide, three independent experiments were performed. The error bars refer to the standard deviation.
Migration assay. Migration assays were performed using 96-well transwell assay plates (Corning Incorporated, Kennebunk, Me., USA) with 5 μm polycarbonate filters. […] Next, 75 μL (0.5×10^5 cells) of Jurkat cells (in assay buffer), together with/without the compounds, were added into the upper chambers. After 4 h at 37° C. (5% CO2), 100 μL of the lower chambers were transferred to a fresh 96 V-well plate and analyzed with Cell-Titer-Glo® assay (Promega, Madison, Wis., USA). The percentage of migrated cells was calculated as described by Balabanian et al. (2005). In order to obtain the relative migration in %, the percentage of migrated cells were normalized to the CXCL12-only control.

[5] = system: CXCR4-tropic X4-HIV-1 (NL4-3); format: cell-based; details: for IC50: CXCR4-tropic X4- (NL4-3)
[6] = system: CXCL12-induced AKT signaling; assay: ERK/AKT signaling assay in SupT1 cells: AKT phosphorylation; format: cell-based
Protocol: (§1) Third, the activity of the claimed EPI-X4 derivatives was tested by the effect on CXCL12/CXCR4-mediated ERK (Extracellular-signal Regulated Kinases) and AKT (a serine/threonine-protein kinase) signaling (FIG. 3). In that assay CXCR4 expressing cells are stimulated with the CXCR4 chemokine-ligand CXCL12, which subsequently leads to phosphorylation of ERK and AKT. Preincubation of cells with CXCR4-antagonists blocks those pathways. […] Two or three independent experiments were carried out in triplicates for each peptide in each assay. The error bars refer to the standard deviation.
(§2) ERK/AKT signaling assay. CXCL12 induced ERK and AKT phosphorylation was determined in SupT1 cells. For this, 100,000 cells were seeded per well in a 96-V well plate in 100 μl medium supplemented with 1% FCS. Cells were incubated for 2 hours at 37° C. before 5 μl of compounds were added. After 15 min incubation at 37° C. cells were stimulated by adding 5 μl CXCL12 diluted in PBS to reach a final concentration of 100 ng/ml. Cells were further incubated for 2 min before the reaction was stopped by adding 20 μl of 10% PFA. Cells were fixed for 15 min at 4° C. before PFA was removed and cells permeabilized by adding 100 μl ice cold methanol. After 15 min at 4° C. the methanol was removed, cells were washed and 30 μl primary antibody was added (phospho-p44/42 MAPK (Erk1) (Tyr204)/(Erk2) (Tyr187) (D1H6G) mouse mAb #5726; phosphor-Akt (Ser473) (193H12) rabbit mAb #4058 Cell Signaling) for 1 hour at 4° C. After the antibody was removed and cells were washed secondary antibody was added for 30 min. Cells were washed afterwards and subsequently analyzed by flow cytometry.

[7] = system: CXCL12-induced ERK signaling; assay: ERK/AKT signaling assay in SupT1 cells: ERK phosphorylation; format: cell-based
Protocol: as §1, §2

[8] = target: T1, CXC chemokine receptor type 4 (CXCR4) (human, UniProt P61073 1-352); assay: antibody competition assay
T1 construct: whole, on cells
Protocol: Antibody competition assay. Competition of compounds with antibody binding was performed on SupT1 cells. For that cells were washed in PBS containing 1% FCS and 50,000 cells were then seeded per well in a 96 V-well plate. Buffer was removed and plates were precooled at 4° C. […] The antibody was used at a concentration closed to its determined Kd. 15 μl compounds were then added to the cells and 15 μl antibody immediately afterwards. Plates were incubated at 4° C. in the dark for 2 hours. Afterwards cells were washed twice with PBS containing 1% FCS and fixed with 2% PFA. Antibody binding was analyzed by flow cytometry (FACS CytoFLEX; Beckman Coulter®).

[9] = target: T1, CXC chemokine receptor type 4 (CXCR4); assay: cell-based or functional assay
[10] = target: T2, CXC chemokine receptor type 4 (CXCR4) (human, UniProt P61073 1-352); assay: competition
T2 chain: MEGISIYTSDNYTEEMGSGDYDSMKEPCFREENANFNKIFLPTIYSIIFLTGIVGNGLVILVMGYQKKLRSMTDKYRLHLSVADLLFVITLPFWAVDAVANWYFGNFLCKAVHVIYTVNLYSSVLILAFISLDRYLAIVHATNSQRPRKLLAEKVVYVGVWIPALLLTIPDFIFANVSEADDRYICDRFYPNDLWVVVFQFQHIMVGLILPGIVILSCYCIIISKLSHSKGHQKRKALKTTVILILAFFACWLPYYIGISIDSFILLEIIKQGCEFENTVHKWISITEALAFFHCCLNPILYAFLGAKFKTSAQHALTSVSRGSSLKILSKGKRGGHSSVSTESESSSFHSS

[11] = target: T2, CXC chemokine receptor type 4 (CXCR4); assay: competition
[12] = target: T2, CXC chemokine receptor type 4 (CXCR4); assay: 12G5 antibody competition

In the case of CCCCCCCCCCCCCCCC(=O)NCCCC[C@H](NC(=O)[C@H](CCCNC(=N)N)NC(=O)[C@H](CO)NC(=O)[C@H](Cc1c[nH]c2ccccc12)NC(=O)[C@H](CCCNC(=N)N)NC(=O)[C@H](CC(C)C)NC(=O)[C@@H](N)[C@@H](C)CC)C(N)=O [JM #170, ILRWSRK(Pal)-NH2] (H-ILRWSRK(Palmitoyl)-NH2), the “reduction of CXCL12 induced calcium-signaling” value [1] is reported as “almost completely blocked calcium-signaling”.

For CCCCCCCCCCCCCCCC(=O)NCCCC[C@H](NC(=O)[C@H](CCCNC(=N)N)NC(=O)[C@H](CO)NC(=O)[C@H](Cc1c[nH]c2ccccc12)NC(=O)[C@H](CCCNC(=N)N)NC(=O)[C@H](CC(C)C)NC(=O)[C@@H](N)[C@@H](C)CC)C(=O)N[C@@H](CC(C)C)C(=O)N1CCC[C@H]1C(=O)N[C@@H](CS)C(=O)N[C@H](C(=O)N[C@@H](CO)C(=O)O)C(C)C [JM #144, ILRWSRK(Pal)LPCVS], the “remaining activity in plasma in vivo 4 hours post injection” value ([2]; 4 hours post injection) was 27% and the “reduction of CXCL12 induced calcium-signaling” value [1] was “almost completely blocked calcium-signaling”.

With CC[C@H](C)[C@H](N)C(=O)N[C@@H](CC(C)C)C(=O)N[C@@H](CCCNC(=N)N)C(=O)N[C@@H](Cc1c[nH]c2ccccc12)C(=O)N[C@@H](CO)C(=O)N[C@@H](CCCNC(=N)N)C(=O)N[C@@H](CCCCN)C(=O)N[C@@H](CC(C)C)C(=O)N1CCC[C@H]1C(N)=O [JM #114] (H-ILRWSRKLP-NH2) the “functional stability in human plasma (in words)” value [3] was “rapidly inactivated in plasma” and the “inhibition of CXCL12 induced migration of T-cells (in words)” value (from here on “inhibition … (in words)”) [4] was “even more effective than the full-length peptide”.

For CCCCCCCCCCCCCCCC(=O)N[C@@H](CCC(=O)O)C(=O)NCCCC[C@H](NC(=O)[C@H](CCCNC(=N)N)NC(=O)[C@H](CO)NC(=O)[C@H](Cc1c[nH]c2ccccc12)NC(=O)[C@H](CCCNC(=N)N)NC(=O)[C@H](CCSC)NC(=O)[C@H](N)CC(C)C)C(N)=O [JM #194, d-LMRWSRK(Glu-Pal)-NH2] (H-[dL]MRWSRK([Glu-Palmitoyl])-NH2; N-terminus assumed), the “remaining activity in plasma in vivo 8 hours post injection” value ([2]; 8 hours post injection) was “about 9%”, the “reduction of CXCL12 induced calcium-signaling” value [1] was “almost completely blocked calcium-signaling” and the “anti-HIV-1 activity (in words)” value [5] was “strongly increased anti-HIV-1 activity”. For the same molecule, the IC50 [5] was 2 nM and the “inhibition … (in words)” value [4] was “high activity”.

With CCCCCCCCCCCCCCCC(=O)N[C@@H](CCC(=O)NCCCC[C@H](NC(=O)[C@H](CCCNC(=N)N)NC(=O)[C@H](CO)NC(=O)[C@H](Cc1c[nH]c2ccccc12)NC(=O)[C@H](CCCNC(=N)N)NC(=O)[C@H](CC(C)C)NC(=O)[C@@H](N)[C@@H](C)CC)C(=O)N[C@@H](CC(C)C)C(=O)N1CCC[C@H]1C(=O)N[C@@H](CS)C(=O)N[C@H](C(=O)N[C@@H](CO)C(=O)O)C(C)C)C(=O)O [JM #143, ILRWSRK(Glu-Pal)LPCVS] the “reduction of CXCL12-induced AKT signaling” value ([6]; 0.1 μM) was 20-25%, the “reduction of CXCL12-induced AKT signaling” value ([6]; 1 μM) was about 70% and the “reduction of CXCL12 induced calcium-signaling” value [1] was “almost completely blocked calcium-signaling”. The “reduction of CXCL12-induced ERK signaling” value ([7]; 0.1 μM) was 20-25%, the “reduction of CXCL12-induced ERK signaling” value ([7]; 1 μM) was about 70% and the IC50 [5] was 5 nM. The “fold increase of anti-HIV-1 potency compared to WSC02” value ([5]; compared to WSC02) was “more than 60 fold” and the “inhibition … (in words)” value [4] was “strongly increased antagonistic effect in CXCL12 induced cell migration”.

With [dM]LRWSRKK-NH2 (not fully specified (residue 8)) the IC50 [8] was under 25 nM and the “IC50, HIV inhibition assay” value [9] was over 150 nM.

In the case of ILRWSRK-NH2 [JM#118], the IC50 [10] is reported as 181 nM, the IC50 [11] is reported as 224 nM and the “IC50, HIV inhibition assay” value [9] is reported as over 150 nM.

B1: SEQ ID NO.: 164 (peptide)
peptide: ILRWSRK([Glu-Stearoyl])LPSVS
notes: derived from JM#198 by replacing the cysteine at position 10 by a serine; also called ILRWSRK(Glu-Ste)LPSVS
In the case of B1, the IC50 [8] is reported as under 25 nM and the “IC50, HIV inhibition assay” value [9] is reported as over 150 nM.

In the case of ILRWSRK(Palmitoyl)LPCVS [JM#144], the IC50 [10] is reported as 125 nM, the IC50 [11] is reported as 87 nM and the “IC50, X4-HIV-1 inhibition assay” value [9] is reported as under 5 nM.

Work on ILRWSRK([Glu-Palmitoyl])LPCVS [JM#143] yielded an IC50 [10] of 204 nM and an IC50 [11] of 176 nM.

In the case of [dL]MRWSRKK([Glu-Palmitoyl])-NH2 [JM#195], the IC50 [12] is reported as 3 nM.

For [dL]MRWSRKMPCVS [JM#36], the IC50 [12] was 305 nM.

In the case of [dM]LRWSRKK([Glu-Palmitoyl])-NH2, the IC50 [12] is reported as 5 nM.

For [dI]LRWSRKLP-NH2 [JM#174], the IC50 [12] was 480 nM and the “IC50, HIV inhibition assay” value [9] was over 150 nM.
